These results are taken from patent publication US12492188B2, “1H-benzo[D]imidazole derivatives as TLR9 inhibitors for the treatment of fibrosis” (BRISTOL-MYERS SQUIBB COMPANY, priority 2020, dated 2025).

Structures are written as SMILES. Like-named read-outs stand apart in the source and are kept apart here.

Holding throughout (assay type): cell-based
One test addresses T1, human TLR8 (Homo sapiens, UniProt Q9NR97).
T1 construct: host or cells: HEK-Blue cells (HEK293-derived reporter line)
T1 sequence (Q9NR97 27-1041): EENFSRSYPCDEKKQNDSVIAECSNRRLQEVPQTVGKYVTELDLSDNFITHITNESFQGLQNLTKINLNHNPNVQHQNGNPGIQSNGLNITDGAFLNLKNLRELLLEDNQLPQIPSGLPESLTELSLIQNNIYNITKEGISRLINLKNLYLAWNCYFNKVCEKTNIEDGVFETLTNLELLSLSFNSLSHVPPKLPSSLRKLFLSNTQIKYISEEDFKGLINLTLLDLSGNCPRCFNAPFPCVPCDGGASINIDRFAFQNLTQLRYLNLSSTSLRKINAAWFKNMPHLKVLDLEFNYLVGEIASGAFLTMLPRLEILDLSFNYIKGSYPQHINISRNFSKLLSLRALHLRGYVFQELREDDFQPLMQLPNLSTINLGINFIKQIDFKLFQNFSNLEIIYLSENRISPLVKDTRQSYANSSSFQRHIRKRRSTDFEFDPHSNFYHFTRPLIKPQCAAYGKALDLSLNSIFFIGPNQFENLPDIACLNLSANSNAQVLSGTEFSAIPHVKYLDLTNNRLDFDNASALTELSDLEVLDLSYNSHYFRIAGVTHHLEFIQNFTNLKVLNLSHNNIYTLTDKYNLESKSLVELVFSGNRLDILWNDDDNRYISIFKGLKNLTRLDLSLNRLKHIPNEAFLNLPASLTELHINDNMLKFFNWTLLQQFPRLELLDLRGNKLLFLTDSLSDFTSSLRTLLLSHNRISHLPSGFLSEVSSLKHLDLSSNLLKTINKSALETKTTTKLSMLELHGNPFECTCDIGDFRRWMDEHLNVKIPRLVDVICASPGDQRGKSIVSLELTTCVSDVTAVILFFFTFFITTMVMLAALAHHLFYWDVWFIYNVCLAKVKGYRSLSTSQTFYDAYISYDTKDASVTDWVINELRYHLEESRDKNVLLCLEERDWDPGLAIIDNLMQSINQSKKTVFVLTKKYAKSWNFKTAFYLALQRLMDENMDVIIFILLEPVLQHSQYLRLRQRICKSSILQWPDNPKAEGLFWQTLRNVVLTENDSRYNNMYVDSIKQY
The test is described as follows: TLR8 inhibition reporter assay (HEK-Blue cells, secreted embryonic alkaline phosphatase reporter). To be noted: HEK-Blue cells overexpressing human TLR8, stimulated with R848 15.9 μM; read-out: TLR 8 IC50. The method in brief: (§1)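 Agonist-driven SEAP output was measured in HEK-Blue reporter cells carrying human TLR7 (gardiquimod 7.5 μM), TLR8 (R848 15.9 μM) or TLR9 (ODN2006 5 nM). Compounds at 0.05 nM–50 μM final were added 30 min before stimulation at room temperature. After 22 h at 37 °C, percent inhibition was taken against agonist/DMSO wells and a reference inhibitor.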

The target of a further test is T2, human TLR7 (Homo sapiens, UniProt Q9NYK1).
T2 construct: host or cells: HEK-Blue cells (HEK293-derived reporter line)
T2 sequence (Q9NYK1 27-1049): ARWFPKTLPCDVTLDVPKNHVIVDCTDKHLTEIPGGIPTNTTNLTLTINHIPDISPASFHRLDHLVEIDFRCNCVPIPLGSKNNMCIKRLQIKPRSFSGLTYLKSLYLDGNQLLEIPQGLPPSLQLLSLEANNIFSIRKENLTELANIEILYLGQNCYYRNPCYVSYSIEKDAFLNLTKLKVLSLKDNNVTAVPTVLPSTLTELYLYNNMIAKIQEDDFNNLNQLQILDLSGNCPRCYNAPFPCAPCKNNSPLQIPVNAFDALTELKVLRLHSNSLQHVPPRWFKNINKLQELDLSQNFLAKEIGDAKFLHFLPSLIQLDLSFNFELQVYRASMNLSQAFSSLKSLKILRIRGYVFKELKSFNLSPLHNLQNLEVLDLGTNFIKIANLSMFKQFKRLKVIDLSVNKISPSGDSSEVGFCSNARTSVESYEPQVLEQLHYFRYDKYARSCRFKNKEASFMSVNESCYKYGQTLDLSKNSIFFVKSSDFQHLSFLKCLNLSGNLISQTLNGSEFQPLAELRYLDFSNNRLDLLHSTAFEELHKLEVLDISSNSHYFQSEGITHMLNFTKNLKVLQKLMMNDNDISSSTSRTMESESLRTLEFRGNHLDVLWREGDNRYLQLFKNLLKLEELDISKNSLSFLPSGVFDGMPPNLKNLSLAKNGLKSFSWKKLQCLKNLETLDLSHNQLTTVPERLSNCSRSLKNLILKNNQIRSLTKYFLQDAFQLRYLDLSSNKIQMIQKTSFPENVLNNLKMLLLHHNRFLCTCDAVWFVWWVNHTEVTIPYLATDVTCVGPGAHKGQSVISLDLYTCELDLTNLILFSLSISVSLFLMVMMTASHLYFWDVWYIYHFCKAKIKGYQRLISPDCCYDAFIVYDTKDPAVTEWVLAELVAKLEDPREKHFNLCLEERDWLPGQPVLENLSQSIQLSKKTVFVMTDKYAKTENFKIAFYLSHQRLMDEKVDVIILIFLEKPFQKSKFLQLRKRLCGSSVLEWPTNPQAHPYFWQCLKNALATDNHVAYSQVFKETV
Nature of the test: TLR7 inhibition reporter assay (HEK-Blue cells, secreted embryonic alkaline phosphatase reporter). The conditions noted are these: HEK-Blue cells overexpressing human TLR7, stimulated with gardiquimod 7.5 μM; read-out: TLR 7 IC50. The method in brief: as §1
(In general: In a reporter assay the amount or activity of a reporter protein is the signal.)

Another test has as its target T3, human TLR9 (Homo sapiens, UniProt Q9NR96).
T3 construct: host or cells: HEK-Blue cells (HEK293-derived reporter line)
T3 sequence (Q9NR96 26-1032): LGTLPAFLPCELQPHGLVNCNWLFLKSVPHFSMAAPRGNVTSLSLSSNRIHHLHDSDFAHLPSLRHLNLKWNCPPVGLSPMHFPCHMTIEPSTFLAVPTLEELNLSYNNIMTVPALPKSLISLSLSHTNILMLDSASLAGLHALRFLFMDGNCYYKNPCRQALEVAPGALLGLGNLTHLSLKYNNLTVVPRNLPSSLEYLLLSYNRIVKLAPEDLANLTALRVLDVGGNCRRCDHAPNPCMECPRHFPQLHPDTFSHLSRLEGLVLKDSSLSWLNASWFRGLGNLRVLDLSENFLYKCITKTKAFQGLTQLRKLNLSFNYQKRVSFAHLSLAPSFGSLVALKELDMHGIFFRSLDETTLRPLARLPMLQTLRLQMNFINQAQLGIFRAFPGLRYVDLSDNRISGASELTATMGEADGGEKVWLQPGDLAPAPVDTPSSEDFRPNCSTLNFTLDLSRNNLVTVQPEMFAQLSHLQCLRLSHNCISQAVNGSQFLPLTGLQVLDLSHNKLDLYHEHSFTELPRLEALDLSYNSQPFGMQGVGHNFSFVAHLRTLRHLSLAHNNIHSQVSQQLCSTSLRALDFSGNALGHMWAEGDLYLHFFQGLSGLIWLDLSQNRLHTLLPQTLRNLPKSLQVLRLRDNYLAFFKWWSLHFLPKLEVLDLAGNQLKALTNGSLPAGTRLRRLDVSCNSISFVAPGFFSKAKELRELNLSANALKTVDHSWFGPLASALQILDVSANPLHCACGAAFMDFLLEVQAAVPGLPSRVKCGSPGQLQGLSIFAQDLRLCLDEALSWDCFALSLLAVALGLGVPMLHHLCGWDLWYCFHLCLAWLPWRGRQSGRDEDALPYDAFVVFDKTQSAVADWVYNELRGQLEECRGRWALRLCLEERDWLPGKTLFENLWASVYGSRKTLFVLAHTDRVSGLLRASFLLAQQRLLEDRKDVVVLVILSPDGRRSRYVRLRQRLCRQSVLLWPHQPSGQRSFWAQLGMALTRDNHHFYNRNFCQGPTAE
Nature of the test: TLR9 inhibition reporter assay (HEK-Blue cells, secreted embryonic alkaline phosphatase reporter). The method in brief: as §1

[1] abbreviates: HEK-Blue cells overexpressing human TLR9, stimulated with ODN2006 5 nM, read-out: TLR 9 IC50.
Where [2] appears, read: HEK-Blue human TLR9 reporter cells.

In the case of `Cc1cc(C2CCN(C3CC4CCC(C3)N4CC3CC3)CC2)cc2[nH]c(-c3ccc(S(C)(=O)=O)cc3)nc12` (stereo not shown) [Example 335, 6-(1-(8-(cyclopropylmethyl)-8-azabicyclo[3.2.1]octan-3-yl)piperidin-4-yl)-4-methyl-2-(4-(methylsulfonyl)phenyl)-1H-benzo[d]imidazole], the IC50 on human TLR8 is > 50 µM; on human TLR7, > 50 µM; at human TLR9 (setting [1]), 0.13 µM; on human TLR9 (setting [2]), 0.13 µM.

With `Cc1cc(C2CCN(C3CC4CCC(C3)N4CC3CC3)CC2)cc2[nH]c(-c3ccc(S(C)(=O)=O)cc3)nc12` (stereo not shown) [Example 336, 6-(1-(8-(cyclopropylmethyl)-8-azabicyclo[3.2.1]octan-3-yl)piperidin-4-yl)-4-methyl-2-(4-(methylsulfonyl)phenyl)-1H-benzo[d]imidazole], the IC50 at human TLR8 is > 50 µM; on human TLR7, 25.4 µM; on human TLR9 (setting [1]), 0.077 µM; on human TLR9 (setting [2]), 0.077 µM.

Consider `Cc1cc(C2CCN(C3CCN(C4CCC4)CC3)CC2)cc2c1nc(-c1ccc(S(C)(=O)=O)c(F)c1)n2C` [Example 337, 6-(1′-cyclobutyl-[1,4′-bipiperidin]-4-yl)-2-(3-fluoro-4-(methylsulfonyl)phenyl)-1,4-dimethyl-1H-benzo[d]imidazole], for which the IC50 is > 50 µM at human TLR8, 1.2 µM at human TLR7, 0.053 µM on human TLR9 (setting [1]) and 0.053 µM at human TLR9 (setting [2]).

For the compound `Cc1cc(C2CCN(C3CCN(CC4CC4)CC3)CC2)cc2c1nc(-c1ccc(S(C)(=O)=O)c(F)c1)n2C` [Example 338, 6-(1′-(cyclopropylmethyl)-[1,4′-bipiperidin]-4-yl)-2-(3-fluoro-4-(methylsulfonyl)phenyl)-1,4-dimethyl-1H-benzo[d]imidazole], the IC50 on human TLR8 was > 50 µM; at human TLR7 it was 3.8 µM; on human TLR9 (setting [1]) it was 0.258 µM; on human TLR9 (setting [2]), 0.26 µM.

As to `Cc1cc(C2CCN(C3CCN(C4CC4)CC3)CC2)cc2c1nc(-c1ccc(S(C)(=O)=O)c(F)c1)n2C` [Example 339, 6-(1′-cyclopropyl-[1,4′-bipiperidin]-4-yl)-2-(3-fluoro-4-(methylsulfonyl)phenyl)-1,4-dimethyl-1H-benzo[d]imidazole], the IC50 on human TLR8 is > 25 µM; at human TLR7, 12.7 µM; at human TLR9 (setting [1]), 0.343 µM; on human TLR9 (setting [2]), 0.34 µM.

For the compound `Cc1cc(C2CCN(C3CC4CCC(C3)N4CC3CC3)CC2)cc2c1nc(-c1ccc(S(C)(=O)=O)c(F)c1)n2C` (stereo not shown) [Example 341, 6-(1-(8-(cyclopropylmethyl)-8-azabicyclo[3.2.1]octan-3-yl)piperidin-4-yl)-2-(3-fluoro-4-(methylsulfonyl)phenyl)-1,4-dimethyl-1H-benzo[d]imidazole], the IC50 at human TLR8 worked out at 16.7 µM; at human TLR7, 2.2 µM; at human TLR9 (setting [1]) it was 0.037 µM; against human TLR9 (setting [2]) it was 0.037 µM.

With `Cc1cc(C2CCN(C3CC4CCC(C3)N4CC(C)C)CC2)cc2c1nc(-c1ccc(S(C)(=O)=O)c(F)c1)n2C` (stereo not shown) [Example 342, 2-(3-fluoro-4-(methylsulfonyl)phenyl)-6-(1-(8-isobutyl-8-azabicyclo[3.2.1]octan-3-yl)piperidin-4-yl)-1,4-dimethyl-1H-benzo[d]imidazole], the IC50 on human TLR8 is > 25 µM; at human TLR7, 12.7 µM; at human TLR9 (setting [1]), 0.123 µM; at human TLR9 (setting [2]), 0.12 µM.

On to `Cc1cc(C2CCN(C3CCN(CC(C)C)CC3)CC2)cc2c1nc(-c1ccc(S(C)(=O)=O)c(F)c1)n2C` [Example 343, 2-(3-fluoro-4-(methylsulfonyl)phenyl)-6-(1′-isobutyl-[1,4′-bipiperidin]-4-yl)-1,4-dimethyl-1H-benzo[d]imidazole], for which the IC50 at human TLR8 was > 25 µM; at human TLR7, 12.6 µM; at human TLR9 (setting [1]), 0.156 µM; against human TLR9 (setting [2]) it was 0.16 µM.

With `Cc1cc(C2CCN(C3CC4CCC(C3)N4C(C)C)CC2)cc2c1nc(-c1ccc(S(C)(=O)=O)c(F)c1)n2C` (stereo not shown) [Example 344, 2-(3-fluoro-4-(methylsulfonyl)phenyl)-6-(1-(8-isopropyl-8-azabicyclo[3.2.1]octan-3-yl)piperidin-4-yl)-1,4-dimethyl-1H-benzo[d]imidazole], the IC50 on human TLR8 is > 50 µM; on human TLR7, 10.8 µM; on human TLR9 (setting [1]), 0.0124 µM; against human TLR9 (setting [2]), 0.12 µM.

For the compound `Cc1cc(C2CCN(C3CC4CCC(C3)N4CC(C)C)CC2)cc2[nH]c(-c3ccc(S(C)(=O)=O)c(F)c3)nc12` (stereo not shown) [Example 346, 2-(3-fluoro-4-(methylsulfonyl)phenyl)-6-(1-(8-isobutyl-8-azabicyclo[3.2.1]octan-3-yl)piperidin-4-yl)-4-methyl-1H-benzo[d]imidazole], the IC50 was > 25 µM at human TLR8, 7.6 µM at human TLR7, 0.056 µM at human TLR9 (setting [1]) and 0.056 µM at human TLR9 (setting [2]).

As usually defined, the IC50 is the midpoint of a concentration-inhibition curve.
